Test results published in publication PMC12566046, “Arylpiperazinyl-Benzocycloheptapyrrole-Carboxamides Endowed with Dual Anticancer and Antiviral Activities” (Molecules, 2025).
Where two headings read alike, the source gives them in different places.

Legend:
[1] = Cytotoxicity on uninfected MDCK cells (WST-8, crystal violet); conditions: dog
[2] = tested on: ZIKV, strain Brazil/2016/INMI1; assay: ZIKV viral yield reduction assay on Huh-7 cells; assay type: cell-based, Zika virus; conditions: Zika virus, Huh-7, read-out: ZIKV/Huh‐7 EC50
Experimental: We developed a protocol to screen the potential antiviral activity of compounds 1–20 against ZIKV (strain Brazil) on Huh-7 cells, against an H1N1 IAV strain (PR/8/1934) on MDCK cells, and against SARS-CoV-2 (strain Milano) on Vero-TMPRSS. Each compound was tested in duplicate at concentrations of 50 μM, 5 μM, and 0.5 μM. Treatment was applied immediately after infection, and at 24–48 h post-infection, supernatants were collected to assess viral yield, determined as PFU/mL for ZIKV and SARS-CoV-2 or as TCID50/mL for IAV. The test allowed us to evaluate both the antiviral action and the cytotoxicity of each compound, comparing them with reference compounds, such as sofosbuvir for ZIKV and EIDD-1931 for IAV and SARS-CoV-2 (Supplementary Materials, Figures S87–S89).
Viral yield reduction assays for ZIKV and SARS-CoV-2 were performed as previously described by Plicanti. Briefly, 1 × 10^4 Huh-7 cells/well and 1.2 × 10^4 VERO TMPRSS cells/well were infected with ZIKV (MOI 1) or SARS-CoV-2 (MOI 0.05) in a primary 96-well plate for 2 h at 37 °C, 5% CO2. […] Supernatants were collected after 48 h (Huh-7) or 24 h (VERO TMPRSS), diluted 3-fold, and added onto VERO E6 or VERO TMPRSS monolayers, respectively. After 2 h at 37 °C, the inoculum was replaced with 0.75% carboxymethyl cellulose (Merck®, Darmstadt, Germany) in DMEM 2% FBS. After 48–72 h, cells were then fixed with 4% buffered formalin solution (Merck®, Darmstadt, Germany) and stained with 1% crystal violet (Merck®, Darmstadt, Germany). Titres and percentage of inhibition were calculated as follows:
PFU/mL = number of plaques*3^n/vol infection, where n is the dilution where plaques were counted:% inhibition = 100 × (1 − Titre-compound/Titre-untreated control) where Titre-compound and Titre-untreated control are the titres (PFU/mL) obtained on cells treated with compound or DMSO, respectively.
SI was obtained by dividing CC50 by EC50 for each drug/virus/cell line. Compounds with SI values ≥ 10 were active in vitro.

[3] = tested on: IAV strain A/PR/8/34 (H1N1)
in vitro [4] = conditions: dog
[5] = tested on: MDA-MB-231/ATCC (breast cancer cell line); assay: NCI-60 single-dose assay; assay type: cell-based, human; conditions: Homo sapiens, MDA-MB-231, read-out: growth inhibition (GI%) and cytotoxicity (negative values)
Description: (§1) We first evaluated the cytotoxic activity of tricyclic-pyrrole carboxamides 1–20 using the NCI-60 cell line panel, representing nine different human cancers: leukemia, melanoma, and cancers of the lung, colon, central nervous system (CNS), ovary, kidney, prostate, and breast (the one-dose graph for compounds 1–20 is reported in Supplementary Materials, Figures S43–S62). Compounds 1, 5, 10, 11, 17, and 20 satisfied pre-determined threshold inhibition criteria in a minimum number of cell lines; therefore, they were also tested in the full five-dose assay (Figures S63–S68 in the Supplementary Materials).

[6] = tested on: MCF-7 (breast cancer cell line); assay: NCI-60 single-dose assay; assay type: cell-based, human; conditions: Homo sapiens, MCF7, read-out: growth inhibition (GI%) and cytotoxicity (negative values), MCF-7, 10^−5 M
Description: as §1

[7] = tested on: BT-549 (breast cancer cell line); assay: NCI-60 single-dose assay; assay type: cell-based, human; conditions: Homo sapiens, BT-549, read-out: growth inhibition (GI%) and cytotoxicity (negative values)
Description: as §1

[8] = tested on: SK-MEL-28 (melanoma cell line); assay: NCI-60 single-dose assay; assay type: cell-based, human; conditions: Homo sapiens, SK-MEL-28, read-out: growth inhibition (GI%) and cytotoxicity (negative values)
Description: as §1

[9] = tested on: EKVX (non-small cell lung cancer cell line); assay: NCI-60 single-dose assay; assay type: cell-based, human; conditions: Homo sapiens, read-out: growth inhibition (GI%) and cytotoxicity (negative values)
Description: as §1

[10] = tested on: SK-MEL-5 (melanoma cell line); assay: NCI-60 single-dose assay; assay type: cell-based, human; conditions: human
Description: as §1

[11] = tested on: T-47D (breast cancer cell line); assay: NCI-60 single-dose assay; assay type: cell-based, human; conditions: Homo sapiens, T47D, read-out: growth inhibition (GI%) and cytotoxicity (negative values)
Description: as §1

M14 (melanoma cell line) = assay: NCI-60 single-dose assay; assay type: cell-based, human; conditions: Homo sapiens, M14, read-out: growth inhibition (GI%) and cytotoxicity (negative values)
Description: as §1

[12] = tested on: UACC-257 (melanoma cell line); assay: NCI-60 single-dose assay; assay type: cell-based, human; conditions: Homo sapiens, UACC-257, read-out: growth inhibition (GI%) and cytotoxicity (negative values)
Description: as §1

[13] = tested on: MALME-3M (melanoma cell line); assay: NCI-60 single-dose assay; assay type: cell-based, human; conditions: Homo sapiens, Malme-3M, read-out: growth inhibition (GI%) and cytotoxicity (negative values)
Description: as §1

[14] = tested on: MDA-MB-435 (melanoma cell line); assay: NCI-60 single-dose assay; assay type: cell-based, human; conditions: Homo sapiens, MDA-MB-435, read-out: growth inhibition (GI%) and cytotoxicity (negative values)
Description: as §1

[15] = tested on: SK-MEL-2 (melanoma cell line); assay: NCI-60 single-dose assay; assay type: cell-based, human; conditions: Homo sapiens, SK-MEL-2, read-out: growth inhibition (GI%) and cytotoxicity (negative values)
Description: as §1

[16] = tested on: LOX IMVI (melanoma cell line); assay: NCI-60 single-dose assay; assay type: cell-based, human; conditions: Homo sapiens, LOX IMVI, read-out: growth inhibition (GI%) and cytotoxicity (negative values)
Description: as §1

[17] = tested on: UACC-62 (melanoma cell line); assay: NCI-60 single-dose assay; assay type: cell-based, human; conditions: Homo sapiens, UACC-62, read-out: growth inhibition (GI%) and cytotoxicity (negative values)
Description: as §1

[18] = tested on: MDA-MB-468 (breast cancer cell line); assay: NCI-60 single-dose assay; assay type: cell-based, human; conditions: Homo sapiens, MDA-MB-468, read-out: growth inhibition (GI%) and cytotoxicity (negative values)
Description: as §1

in vitro [19] = conditions: African green monkey
[20] = Cytotoxicity on uninfected Huh-7 cells (WST-8, crystal violet); conditions: human, uninfected Huh-7 cells
Experimental: The toxicity of the compounds at the same concentration was tested on the same cells in parallel.
Cytotoxic effects were evaluated on uninfected cells using the WST-8 assay (Orangu, Cell Guidance Systems, Cambridge, UK) and the crystal violet assay [23]. […] Huh-7, MDCK, and Vero TMPRSS cells were seeded at 1 × 10^4, 1.5 × 10^4, and 1.2 × 10^4 cells/well, respectively, and incubated for 48 h (Huh-7 and MDCK) or 24 h (VERO TMPRSS), following conditions matching those of the corresponding antiviral assays in terms of timing and culture medium. At the end of incubation, the medium was replaced with a 10% WST-8 solution in DMEM and incubated for 1 h at 37 °C. Optical density (OD) was then measured at 450 nm using a Varioskan LUX plate reader (ThermoFisher Scientific, Milano, Italy). Subsequently, cells were fixed with 4% buffered formalin solution (Merck®, Darmstadt, Germany), stained with 1% crystal violet (Merck®, Darmstadt, Germany), and the dye was solubilized in 30% acetic acid for 30 min under shaking. OD was then measured at 595 nm as an additional readout of cell viability. The percentage of viability at each concentration was calculated using the formula:% viability = 100 × (ODcompound/ODuntreated control) where ODcompound and ODuntreated are the OD of the cells treated with compound or DMSO, respectively.
The CC50 value was determined by nonlinear regression analysis on GraphPad Prism 7 (San Diego, CA, USA).

[21] = tested on: IAV strain A/PR/8/34 (H1N1); assay: microbe, parasite or virus in culture; conditions: Influenza A virus, MDCK
NCI-60 cell line panel = assay: NCI-60 single-dose assay, whole panel; assay type: cell-based, human; conditions: summary over the panel
Description: as §1

In the case of `O=C(NCCN1CCN(c2ccc(Cl)c(Cl)c2)CC1)c1c(Cl)[nH]c2c1CCCc1ccccc1-2` [Compound 19], the CC50 at 48 h [1] is reported as 92.1 µM, the EC50 [2] is reported as 4.08 µM and the “selectivity index (SI)” value ([3]; IAV, MDCK cells, CC50/EC50) is reported as 21.36. For the same compound, the “IAV/MDCK SI” value ([3]; preliminary screening) was less than 12.17, the CC50 (in vitro [4]) was less than 50 µM and the inhibition at 10 µM [5] was less than 60%. For the same compound, the inhibition at 10 µM [6] was less than 60%, the inhibition at 10 µM [7] was less than 60% and the inhibition at 10 µM [8] was less than 60%. For the same compound, the inhibition at 10 µM [9] was 61.7%, the “growth inhibition (GI%) and cytotoxicity (negative values)” value [10] was −24.28% and the inhibition at 10 µM [11] was less than 60%. It also gave an inhibition at 10 µM (M14 (melanoma cell line)) of less than 60%, an inhibition at 10 µM [12] of less than 60% and an inhibition at 10 µM [13] of less than 60%. The inhibition at 10 µM [14] was less than 60%, the inhibition at 10 µM [15] was less than 60% and the inhibition at 10 µM [16] was less than 60%. For the same compound, the inhibition at 10 µM [17] was less than 60%, the inhibition at 10 µM [18] was 94.2% and the CC50 at 24 h (in vitro [19]) was 40.8 µM. For the same compound, the CC50 at 48 h [20] was 12 µM, the EC50 ([21]; 48 h) was 4.31 µM and the EC50 ([21]; read-out: IAV/MDCK EC50) was 4.11 µM. The “growth inhibition (GI%) reached against cancer cell lines of the NCI-60 panel” value (NCI-60 cell line panel) was greater than 90%.
